Results taken from ChEMBL document CHEMBL1201861, “Genomics of Drug Sensitity in Cancer screening data, Wellcome Trust Sanger Institute”.

Columns and labels:
Test in all cases: cells
[1] = test system: C32; assay type: functional, cell-based, Homo sapiens; details: Homo sapiens, C32;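 also: cell viability assay, with IC50 reflecting inhibition of C32 cell growth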
Description: SANGER: Inhibition of human C32 cell growth in a cell viability assay.

[2] = test system: HLE; assay type: functional, cell-based, Homo sapiens; details: Homo sapiens, HLE;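 also: growth inhibition of human HLE cells, read out by a cell viability assay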
Description: SANGER: Inhibition of human HLE cell growth in a cell viability assay.

[3] = test system: KGN; assay type: functional, cell-based, Homo sapiens; details: Homo sapiens, KGN;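 also: growth inhibition of KGN cells, read out with a cell viability assay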
Description: SANGER: Inhibition of human KGN cell growth in a cell viability assay.

[4] = test system: MKN-1; assay type: functional, cell-based, Homo sapiens; details: Homo sapiens, MKN-1;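 also: growth inhibition of human MKN1 cells, read out by a cell viability measurement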
Description: SANGER: Inhibition of human MKN1 cell growth in a cell viability assay.

[5] = test system: MEL-HO; assay type: functional, cell-based, Homo sapiens; details: Homo sapiens, MEL-HO
Description: SANGER: Inhibition of human MEL-HO cell growth in a cell viability assay.

[6] = test system: OVCAR-3; assay type: functional, cell-based, Homo sapiens; details: Homo sapiens, OVCAR-3;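 also: growth inhibition of human OVCAR-3 cells, determined by a cell viability assay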
Description: SANGER: Inhibition of human OVCAR-3 cell growth in a cell viability assay.

[7] = test system: OCI-AML2; assay type: functional, cell-based; details: Homo sapiens;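 also: growth inhibition of OCI-AML2 cells, read out with a cell viability assay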
Description: SANGER: Inhibition of human OCI-AML2 cell growth in a cell viability assay.

[8] = test system: GB-1; assay type: functional, cell-based, Homo sapiens; details: Homo sapiens, GB-1;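 also: growth of GB-1 cells judged by a viability assay, IC50 marks the concentration inhibiting growth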
Description: SANGER: Inhibition of human GB-1 cell growth in a cell viability assay.

[9] = test system: EFO-21; assay type: functional, cell-based, Homo sapiens; details: Homo sapiens, EFO-21;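 also: growth inhibition of EFO-21 cells measured with a viability assay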
Description: SANGER: Inhibition of human EFO-21 cell growth in a cell viability assay.

[10] = test system: MC116; assay type: functional, cell-based; details: Homo sapiens;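 also: growth inhibition of MC116 cells, read out with a cell viability assay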
Description: SANGER: Inhibition of human MC116 cell growth in a cell viability assay.

[11] = test system: D-336MG; assay type: functional, cell-based, Homo sapiens; details: Homo sapiens, D-336MG
Description: SANGER: Inhibition of human D-336MG cell growth in a cell viability assay.

[12] = test system: KYSE-70 cell line; assay type: functional, cell-based, Homo sapiens; details: Homo sapiens, KYSE-70;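 also: cell viability assay read-out, with IC50 expressing suppression of KYSE-70 cell growth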
Description: SANGER: Inhibition of human KYSE-70 cell growth in a cell viability assay.

[13] = test system: U2OS; assay type: functional, cell-based, Homo sapiens, U-2-OS; details: Homo sapiens, U2OS;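 also: growth inhibition of human U-2-OS cells, determined with a cell viability assay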
Description: SANGER: Inhibition of human U-2-OS cell growth in a cell viability assay.

[14] = test system: EFO-27; assay type: functional, cell-based, Homo sapiens; details: Homo sapiens, EFO-27;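 also: growth inhibition of EFO-27 cells, read out with a cell viability assay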
Description: SANGER: Inhibition of human EFO-27 cell growth in a cell viability assay.

[15] = test system: MeWo; assay type: functional, cell-based, Homo sapiens; details: Homo sapiens, MeWo;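 also: growth inhibition of MeWo cells, determined by a cell viability readout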
Description: SANGER: Inhibition of human Mewo cell growth in a cell viability assay.

[16] = test system: Ramos-2G6-4C10; assay type: functional, cell-based; details: Homo sapiens;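 also: growth inhibition of the cell line, measured by a cell viability read-out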
Description: SANGER: Inhibition of human Ramos-2G6-4C10 cell growth in a cell viability assay.

[17] = test system: NCI-H226; assay type: functional, cell-based, Homo sapiens; details: Homo sapiens, NCI-H226;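 also: cell viability read-out used to gauge growth inhibition of the cells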
Description: SANGER: Inhibition of human NCI-H226 cell growth in a cell viability assay.

[18] = test system: HCC1187; assay type: functional, cell-based, Homo sapiens; details: Homo sapiens, HCC1187;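 also: growth inhibition of HCC1187 cells, read out with a cell viability assay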
Description: SANGER: Inhibition of human HCC1187 cell growth in a cell viability assay.

[19] = test system: MDA-MB-157; assay type: functional, cell-based, Homo sapiens; details: Homo sapiens, MDA-MB-157
Description: SANGER: Inhibition of human MDA-MB-157 cell growth in a cell viability assay.

[20] = test system: ACN; assay type: functional, cell-based, Homo sapiens; details: Homo sapiens, ACN;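 also: growth inhibition of the human ACN cell line, read out via cell viability testing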
Description: SANGER: Inhibition of human ACN cell growth in a cell viability assay.

[21] = test system: P30-OHK; assay type: functional, cell-based; details: Homo sapiens;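 also: growth inhibition of the P30-OHK cell line, read out with a cell viability assay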
Description: SANGER: Inhibition of human P30-OHK cell growth in a cell viability assay.

[22] = test system: BFTC-909; assay type: functional, cell-based, Homo sapiens; details: Homo sapiens, BFTC-909
Description: SANGER: Inhibition of human BFTC-909 cell growth in a cell viability assay.

[23] = test system: RXF 393; assay type: functional, cell-based; details: Homo sapiens;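 also: growth inhibition of human RXF 393 cells, read out with a cell viability assay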
Description: SANGER: Inhibition of human RXF393 cell growth in a cell viability assay.

[24] = test system: LU-99A; assay type: functional, cell-based, Homo sapiens; details: Homo sapiens, LU-99A;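 also: growth inhibition of LU-99A cells, read out with a cell viability assay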
Description: SANGER: Inhibition of human LU-99A cell growth in a cell viability assay.

[25] = test system: CHP-212; assay type: functional, cell-based, Homo sapiens; details: Homo sapiens, CHP-212
Description: SANGER: Inhibition of human CHP-212 cell growth in a cell viability assay.

[26] = test system: NCI-H1299; assay type: functional, cell-based, Homo sapiens; details: Homo sapiens, NCI-H1299;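 also: growth inhibition of human NCI-H1299 cells, read out by a cell viability assay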
Description: SANGER: Inhibition of human NCI-H1299 cell growth in a cell viability assay.

[27] = test system: NB12; assay type: functional, cell-based, Homo sapiens; details: Homo sapiens, NB12;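 also: growth inhibition of human NB12 cells, read out by a cell viability assay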
Description: SANGER: Inhibition of human NB12 cell growth in a cell viability assay.

[28] = test system: SW948; assay type: functional, cell-based, Homo sapiens; details: Homo sapiens, SW948;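 also: growth inhibition of SW948 cells, read out with a cell viability assay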
Description: SANGER: Inhibition of human SW948 cell growth in a cell viability assay.

[29] = test system: SNU-387; assay type: functional, cell-based, Homo sapiens; details: Homo sapiens, SNU-387
Description: SANGER: Inhibition of human SNU-387 cell growth in a cell viability assay.

[30] = test system: BT-474; assay type: functional, cell-based, Homo sapiens; details: Homo sapiens, BT-474
Description: SANGER: Inhibition of human BT-474 cell growth in a cell viability assay.

[31] = test system: ETK-1; assay type: functional, cell-based, Homo sapiens; details: Homo sapiens, ETK-1;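 also: growth inhibition of human ETK-1 cells, read out with a cell viability assay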
Description: SANGER: Inhibition of human ETK-1 cell growth in a cell viability assay.

[32] = test system: TGBC1TKB; assay type: functional, cell-based, Homo sapiens; details: Homo sapiens, TGBC1TKB;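 also: growth inhibition of TGBC1TKB cells, read out by a cell viability assay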
Description: SANGER: Inhibition of human TGBC1TKB cell growth in a cell viability assay.

[33] = test system: SHP77; assay type: functional, cell-based, Homo sapiens, SHP-77; details: Homo sapiens, SHP77;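 also: growth inhibition of human SHP-77 cells measured by a cell viability assay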
Description: SANGER: Inhibition of human SHP-77 cell growth in a cell viability assay.

[34] = test system: NB14; assay type: functional, cell-based; details: Homo sapiens;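 also: growth inhibition of NB14 cells measured with a cell viability assay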
Description: SANGER: Inhibition of human NB14 cell growth in a cell viability assay.

[35] = test system: LB771-HNC; assay type: functional, cell-based, Homo sapiens; details: Homo sapiens, LB771-HNC;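 also: growth inhibition of LB771-HNC human cells, read out with a cell viability assay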
Description: SANGER: Inhibition of human LB771-HNC cell growth in a cell viability assay.

[36] = test system: OAW-42; assay type: functional, cell-based, Homo sapiens; details: Homo sapiens, OAW-42;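 also: growth inhibition of OAW-42 cells, read out with a cell viability assay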
Description: SANGER: Inhibition of human OAW-42 cell growth in a cell viability assay.

[37] = test system: KNS-81-FD; assay type: functional, cell-based, Homo sapiens; details: Homo sapiens, KNS-81-FD;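 also: growth inhibition of KNS-81-FD cells, read out with a cell viability assay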
Description: SANGER: Inhibition of human KNS-81-FD cell growth in a cell viability assay.

[38] = test system: KYSE-510; assay type: functional, cell-based, Homo sapiens; details: Homo sapiens, KYSE-510;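 also: cell viability readout used to measure how strongly growth of the cell line is suppressed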
Description: SANGER: Inhibition of human KYSE-510 cell growth in a cell viability assay.

[39] = test system: Calu-6; assay type: functional, cell-based, Homo sapiens; details: Homo sapiens, Calu-6;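 also: growth of human Calu-6 cells, read out by a cell viability assay, IC50 marking inhibition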
Description: SANGER: Inhibition of human Calu-6 cell growth in a cell viability assay.

[40] = test system: AN3-CA; assay type: functional, cell-based; details: Homo sapiens;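 also: growth inhibition of human AN3-CA cells measured by a cell viability assay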
Description: SANGER: Inhibition of human AN3-CA cell growth in a cell viability assay.

[41] = test system: NCI-H1437; assay type: functional, cell-based, Homo sapiens; details: Homo sapiens, NCI-H1437;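 also: growth inhibition of human NCI-H1437 cells, read out by a cell viability assay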
Description: SANGER: Inhibition of human NCI-H1437 cell growth in a cell viability assay.

[42] = test system: SNB-75; assay type: functional, cell-based, Homo sapiens; details: Homo sapiens, SNB-75;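 also: cell viability assay measuring growth inhibition of human SNB-75 cells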
Description: SANGER: Inhibition of human SNB75 cell growth in a cell viability assay.

[43] = test system: DB; assay type: functional, cell-based; details: Homo sapiens
Description: SANGER: Inhibition of human DB cell growth in a cell viability assay.

[44] = test system: no-10; assay type: functional, cell-based, Homo sapiens; details: Homo sapiens;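 also: growth inhibition of no-10 cells, read out with a cell viability assay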
Description: SANGER: Inhibition of human no-10 cell growth in a cell viability assay.

[45] = test system: NCI-H1838; assay type: functional, cell-based, Homo sapiens; details: Homo sapiens, NCI-H1838;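 also: growth inhibition of NCI-H1838 cells, determined with a cell viability readout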
Description: SANGER: Inhibition of human NCI-H1838 cell growth in a cell viability assay.

[46] = test system: IGROV-1; assay type: functional, cell-based, Homo sapiens; details: Homo sapiens, IGROV-1;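 also: reduction of IGROV-1 cell growth, read out with a viability assay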
Description: SANGER: Inhibition of human IGROV-1 cell growth in a cell viability assay.

[47] = test system: YKG-1; assay type: functional, cell-based, Homo sapiens; details: Homo sapiens, YKG-1;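 also: cell growth inhibition, read out with a viability assay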
Description: SANGER: Inhibition of human YKG-1 cell growth in a cell viability assay.

[48] = test system: SNU-5; assay type: functional, cell-based; details: Homo sapiens;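 also: cell viability readout used to measure growth inhibition in human NCI-SNU-5 cells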
Description: SANGER: Inhibition of human NCI-SNU-5 cell growth in a cell viability assay.

[49] = test system: EW-16; assay type: functional, cell-based, Homo sapiens; details: Homo sapiens, EW-16;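 also: growth inhibition of human EW-16 cells, read out as cell viability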
Description: SANGER: Inhibition of human EW-16 cell growth in a cell viability assay.

[50] = test system: NCI-H1581; assay type: functional, cell-based, Homo sapiens; details: Homo sapiens, NCI-H1581;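 also: cell growth inhibition read out by a viability assay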
Description: SANGER: Inhibition of human NCI-H1581 cell growth in a cell viability assay.

[51] = test system: SJSA-1; assay type: functional, cell-based, Homo sapiens; details: Homo sapiens, SJSA-1;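 also: growth inhibition of human SJSA-1 cells, read out through a cell viability measurement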
Description: SANGER: Inhibition of human SJSA-1 cell growth in a cell viability assay.

Molecule `O=C1N=C(NCc2cccs2)S/C1=C\c1ccc2ncccc2c1` has an IC50 [1] greater than 5 µM, an IC50 [2] greater than 5 µM and an IC50 [3] greater than 5 µM. The IC50 [4] was greater than 5 µM, the IC50 [5] was greater than 5 µM and the IC50 [6] was greater than 5 µM. It also gave an IC50 [7] greater than 5 µM, an IC50 [8] greater than 5 µM and an IC50 [9] greater than 5 µM. The IC50 [10] was greater than 5 µM, the IC50 [11] was greater than 5 µM and the IC50 [12] was greater than 5 µM. It also gave an IC50 [13] greater than 5 µM, an IC50 [14] greater than 5 µM and an IC50 [15] greater than 5 µM. For the same molecule, the IC50 [16] was greater than 5 µM, the IC50 [17] was greater than 5 µM and the IC50 [18] was greater than 5 µM. For the same molecule, the IC50 [19] was greater than 5 µM, the IC50 [20] was greater than 5 µM and the IC50 [21] was greater than 5 µM. For the same molecule, the IC50 [22] was greater than 5 µM, the IC50 [23] was greater than 5 µM and the IC50 [24] was greater than 5 µM. For the same molecule, the IC50 [25] was greater than 5 µM, the IC50 [26] was greater than 5 µM and the IC50 [27] was greater than 5 µM. For the same molecule, the IC50 [28] was greater than 5 µM, the IC50 [29] was greater than 5 µM and the IC50 [30] was greater than 5 µM. For the same molecule, the IC50 [31] was greater than 5 µM, the IC50 [32] was greater than 5 µM and the IC50 [33] was greater than 5 µM. The IC50 [34] was greater than 5 µM, the IC50 [35] was greater than 5 µM and the IC50 [36] was greater than 5 µM. The IC50 [37] was greater than 5 µM, the IC50 [38] was greater than 5 µM and the IC50 [39] was greater than 5 µM. The IC50 [40] was greater than 5 µM, the IC50 [41] was greater than 5 µM and the IC50 [42] was greater than 5 µM. For the same molecule, the IC50 [43] was greater than 5 µM, the IC50 [44] was greater than 5 µM and the IC50 [45] was greater than 5 µM. It also gave an IC50 [46] greater than 5 µM, an IC50 [47] greater than 5 µM and an IC50 [48] greater than 5 µM. For the same molecule, the IC50 [49] was greater than 5 µM, the IC50 [50] was greater than 5 µM and the IC50 [51] was greater than 5 µM.

With `CC(=O)O[C@@H]1[C@@H](OC(C)=O)[C@@H](O)[C@H](Oc2c(-c3ccc(O)cc3)oc3cc(O)cc(O)c3c2=O)O[C@H]1C` the IC50 [1] was greater than 10 µM, the IC50 [2] was greater than 10 µM and the IC50 [3] was greater than 10 µM. The IC50 [4] was greater than 10 µM, the IC50 [5] was greater than 10 µM and the IC50 [6] was greater than 10 µM. For the same molecule, the IC50 [7] was greater than 10 µM, the IC50 [8] was greater than 10 µM and the IC50 [9] was greater than 10 µM. For the same molecule, the IC50 [10] was greater than 10 µM, the IC50 [11] was greater than 10 µM and the IC50 [12] was greater than 10 µM. The IC50 [13] was greater than 10 µM, the IC50 [14] was greater than 10 µM and the IC50 [15] was greater than 10 µM. The IC50 [16] was greater than 10 µM, the IC50 [17] was greater than 10 µM and the IC50 [18] was greater than 10 µM. For the same molecule, the IC50 [19] was greater than 10 µM, the IC50 [20] was greater than 10 µM and the IC50 [21] was greater than 10 µM. It also gave an IC50 [22] greater than 10 µM, an IC50 [23] greater than 10 µM and an IC50 [24] greater than 10 µM. For the same molecule, the IC50 [25] was greater than 10 µM, the IC50 [26] was greater than 10 µM and the IC50 [27] was greater than 10 µM. For the same molecule, the IC50 [28] was greater than 10 µM, the IC50 [29] was greater than 10 µM and the IC50 [30] was greater than 10 µM. It also gave an IC50 [31] greater than 10 µM, an IC50 [32] greater than 10 µM and an IC50 [33] greater than 10 µM. It also gave an IC50 [34] greater than 10 µM, an IC50 [35] greater than 10 µM and an IC50 [36] greater than 10 µM. The IC50 [37] was greater than 10 µM, the IC50 [38] was greater than 10 µM and the IC50 [39] was greater than 10 µM. For the same molecule, the IC50 [40] was greater than 10 µM, the IC50 [41] was greater than 10 µM and the IC50 [42] was greater than 10 µM. It also gave an IC50 [43] greater than 10 µM, an IC50 [44] greater than 10 µM and an IC50 [45] greater than 10 µM. For the same molecule, the IC50 [46] was greater than 10 µM, the IC50 [47] was greater than 10 µM and the IC50 [48] was greater than 10 µM. For the same molecule, the IC50 [49] was greater than 10 µM, the IC50 [50] was greater than 10 µM and the IC50 [51] was greater than 10 µM.
